Laboratory results published in patent publication US9320773B2, “Compounds and therapeutic applications related to inhibition of dendritic cell immunoreceptor (DCIR) activity and signaling events” (priority 2010, dated 2016).

Columns and labels:
[1] = test system: DCIR expression in CD4+ T cells; assay: HIV-1-mediated induction of DCIR expression in CD4+ T cells (flow cytometry); assay type: cell-based, human; details: cells pre-treated before virus infection, 3 days; result in words
Protocol: Mitogen-activated CD4^+ T cells (1×10^6) were first either left untreated or treated for 1 h with the caspase inhibitor Z-VAD-FMK (50 nM), after which HIV-1 was added (100 ng of p24), where indicated. DCIR expression was monitored 3 days later by flow cytometry. Data shown represent the means±SD of triplicate samples from three independent experiments.
Cells (1×10^6) were first either left untreated or treated for 1 h with NAC, after which HIV-1 (100 ng of p24) was added. DCIR expression was monitored 3 days later by flow cytometry. Expression of DCIR is shown as a dotted line, whereas the continuous line represents staining obtained with an isotype-matched irrelevant control Ab. Data shown correspond to a single experiment representative of 3 independent experiments.
Cell surface expression of DCIR was monitored by flow cytometric analysis (Epics ELITE ESP, Coulter Electronics, Burlington, Canada). Cells (1×10^6 cells) were incubated for 30 min with a pool of human serum to block the unspecific binding. After washing, the cells were incubated with PE-labeled anti-DCIR (0.25 μg) for 45 min at 4° C. and then washed twice with PBS and 0.5% BSA. Non-specific staining was determined by using an isotype-matched irrelevant control antibody. After two final washes with PBS, cells were fixed in 2% paraformaldehyde for 30 min and analyzed.

[2] = test system: human primary CD4+ T cells; assay: Apoptosis of HIV-1-infected and bystander CD4+ T cells (FITC-VAD-FMK staining); assay type: cell-based; details: NL4-3-IRES-HSA infected CD4+ T cells; data not shown
Source text: The HIV-1-mediated induction of apoptosis in both infected and bystander CD4^+ T cells is a well-described phenomenon. The peak of apoptosis is observed usually after 2 to 3 days, the same time frame in which we detected the HIV-1-dependent induction of DCIR. Therefore, we next assessed whether there might be a connection between the virus-induced DCIR expression and apoptosis. We initially assessed the ability of NL4-3-IRES-HSA reporter virus to drive apoptosis in CD4^+ T cells using FITC-VAD-FMK staining. This fluorochrome-labeled pan-caspase inhibitor is a specific and convenient-to-use marker of apoptotic cells, which can identify very early events of apoptosis associated with caspase activation (i.e. pre-apoptotic cells). Our studies indicate that NL4-3-IRES-HSA virions can potently mediate apoptosis in human primary CD4^+ T cells (data not shown). […] To establish a link between DCIR expression and apoptosis following HIV-1 infection, we carried out a series of investigations with the broad-spectrum caspase inhibitor Z-VAD-FMK [94].

[3] = test system: DCIR expression in CD4+ T cells; assay: DCIR expression in CD4+ T cells after H2O2 or other apoptosis inducers (flow cytometry); assay type: cell-based, human
Protocol: Next, DCIR expression was assessed by flow cytometry. Data shown represent the ratio of DCIR expression over basal expression. The ratio is calculated from the means±SD of triplicate samples from three independent experiments. […] FIG. 16A: […] Expression of DCIR is shown as a dotted line, whereas the continuous line represents staining obtained with an isotype-matched irrelevant control Ab. Data shown correspond to a single experiment representative of 3 independent experiments. FIG. 16B: […] Thereafter, DCIR surface expression and caspase activation were monitored by flow cytometric analysis using a double-staining method consisting of FITC-VAD-FMK followed by the R-PE-conjugated anti-DCIR. Data shown correspond to a single experiment representative of 4 independent experiments. Cell surface expression of DCIR was monitored by flow cytometric analysis (Epics ELITE ESP, Coulter Electronics, Burlington, Canada). […] After washing, the cells were incubated with PE-labeled anti-DCIR (0.25 μg) for 45 min at 4° C. and then washed twice with PBS and 0.5% BSA. Non-specific staining was determined by using an isotype-matched irrelevant control antibody. After two final washes with PBS, cells were fixed in 2% paraformaldehyde for 30 min and analyzed.

CD4+ T cells = assay: Cell toxicity / viability of CD4+ T cells; assay type: cell-based, human; details: mitogen-stimulated CD4+ T cells; data not shown
[4] = test system: HIV-1 NL4-3 in CD4+ T cells
Protocol: Target CD4^+ T cells (1×10^6) were treated for 16 h with H2O2 (30 μM) to induce surface expression of DCIR. FIG. 17A: Cells were next exposed to NL4-3 (100 ng of p24) for 1 h at 37° C., extensively washed to remove unabsorbed virons before assessing the p24 content. FIG. 17B: Cells were first incubated with NL4-3 (100 ng of p24) for 2 h at 37° C., washed extensively to remove input virus and cultured in complete culture RPMI-1640 medium supplemented with rhIL-2 for the indicated number of days. Cell-free supernatants were collected and assayed for the p24 content. FIG. 17C: Cells were exposed to NL4-3 (100 ng of p24) for 2 h at 37° C., next washed extensively to remove input virus, and finally co-cultured with autologous CD4^+ T cells in complete culture RPMI-1640 medium supplemented with rhIL-2 for the indicated number of days. Cell-free supernatants were collected and assayed for the p24 content. Virus production at day 2 is depicted in the small inserts (FIGS. 17B and C). FIG. 17D: Cells were exposed to NL4-3 (100 ng of p24) for 2 h at 37° C., washed extensively to remove input virus, and maintained in complete culture medium supplemented with rhIL-2 for 3 days. Next, DCIR-negative and -positive cells (used as transmitter cells) were isolated with magnetic beads and co-cultured with uninfected CD4^+ T cells (used as recipient cells). […]

DC-SIGN = details: induction of apoptosis by H2O2; data not shown
CD4 = details: induction of apoptosis by H2O2; data not shown
[5] = test system: HIV-1 NL4-3 in Raji-CD4-DCIR cells; assay: HIV-1 binding/entry assay in Raji-CD4-DCIR cells (cell-associated p24 ELISA); assay type: cell-based; details: cells pretreated with inhibitor 10 min, pulsed with NL4-3 60 min; result in words
Protocol: (§1) FIG. 2A: Raji-CD4 and Raji-CD4-DCIR cells were either left untreated or treated with SSG (100 μg/ml) for 10 min at 37° C. Thereafter, cells were pulsed with NL4-3 for 60 min. After three washes with PBS to remove non-adsorbed virus, cell-associated virus was quantified by measuring the p24 content. Data shown correspond to the means±SD of triplicate samples from three combined independent experiments. The asterisk denotes statistically significant data (*, P<0.05; **, P<0.01). FIG. 2B: Cells were either left untransfected or transfected with a sense or antisense oligonucleotide specific for the signalling protein of interest. Next, cells were pulsed with NL4-3 for 60 min. After three washes with PBS to eliminate unbound virus, cell-associated virus was quantified by measuring the p24 content. Data shown correspond to the means±SD of triplicate samples from three combined independent experiments. The asterisk denotes statistically significant data (*, P<0.05; **, P<0.01). After gene silencing, the diminution of the targeted protein was verified by western blots, provided as an insert for each graph.
Where indicated, parental Raji-CD4 cells (DCIR-negative) or Raji-CD4-DCIR transfectants (1×10^6) were pretreated with the indicated amount of a pharmacological inhibitor for 10 min or transfected with sense or antisense oligonucleotides as described below. Cells were then pulsed with NL4-3 (100 ng of p24) for 60 min at 37° C. Next the virus-cell mixture was washed 3 times with PBS to remove unbound virus and resuspended in PBS containing 1% BSA. To assess binding/entry, the p24 content was determined by our in-house ELISA assay^33.
Raji-CD4 and Raji-CD4-DCIR cells (1×10^6 cells) were washed with OptiMEM (Invitrogen Life Technologies) without serum and antibiotics. The phosphorothioate oligodeoxynucleotides (Listed in Table 1) (Invitrogen Life Technologies) were transfected at a final concentration of 10 μM/well^35 using Oligofectamine according to the manufacturer's instructions (Invitrogen Life Technologies). Silencing efficiency was monitored by western blot analysis.

[6] = test system: HIV-1 NL4-3 in Raji-CD4 cells; assay: HIV-1 binding/entry assay in parental Raji-CD4 cells (DCIR-negative); assay type: cell-based; details: pretreated with inhibitor 10 min, result in words
Protocol: as §1, with “After gene silencing, the diminution of the targeted protein was verified by western blots, provided as an insert for each graph.” left out
Where indicated, parental Raji-CD4 cells (DCIR-negative) or Raji-CD4-DCIR transfectants (1×10^6) were pretreated with the indicated amount of a pharmacological inhibitor for 10 min or transfected with sense or antisense oligonucleotides as described below. […] To assess binding/entry, the p24 content was determined by our in-house ELISA assay^33.

O=C1Nc2ccc(Cl)cc2[C@@](C#CC2CC2)(C(F)(F)F)O1 [EFV, efavirenz]
HIV-1-mediated DCIR expression [1]: reduced significantly | percentages of apoptotic cells in virus-infected and bystander cells [2]: significantly reduced

OO [H2O2, Hydrogen peroxide]
DCIR expression ([3]; CD4+ T cells treated with inducer, H2O2 20 to 60 μM, result in words): dose-dependent increased | DCIR expression in activated CD4+ T cells ([3]; H2O2-treated cells (30 μM, 16 h), n=3): 21.4±3.4% | apoptotic cells also positive for DCIR ([3]; H2O2 treatment, FITC-VAD-FMK and anti-DCIR double staining, n=3): 12.2±3.2% | doses at which cell viability was reduced (CD4+ T cells): ≥ 45 µM | virus production [4]: statistically significant increase | virus binding and entry, p24 ([4]; CD4+ T cells exposed to H2O2 (30 μM, 16 h), 3.8±0.8 without H2O2): 12.5±1.8 ng/ml of p24 | surface expression of DC-SIGN (DC-SIGN): not modulated | surface expression of CD4 (CD4): not modulated

O.O.O.O.O.O.O.O.O.O=C([O-])[C@@H]1[O][Sb]2([O-])([O][Sb]34([OH])[O][C@H]([C@H](O)CO)[C@H]([O]3)[C@H](C(=O)[O-])[O]4)[O][C@H]([C@H](O)CO)[C@@H]1[O]2.[Na+].[Na+].[Na+] [SSG, sodium stibogluconate]
HIV-1 binding/entry [5]: decreases | HIV-1 binding/entry [6]: no similar effect
